# Data published in article PMC4213378, “Pharmacokinetics and Efficacy of the Spleen Tyrosine Kinase Inhibitor R406 after Ocular Delivery for Retinoblastoma” (Pharmaceutical Research, 2014).
# Legend:
# [1] = Plasma pharmacokinetics after oral or subconjunctival administration; assay type: in vivo, mouse; conditions: local (subconjunctival), mice
# Experimental: For oral delivery of R788, the target dose of 25 mg/kg R788 was administered by oral gavage as a 4 mM solution in 0.01 N citrate buffer, pH 6 ([9]). For subconjunctival administration, R788 was prepared at a concentration of 4 mM in 2% PEG-800 and filtered through a 0.22 μm filter prior to use (see Table S1). R788 was also administered subconjunctivally as a suspension at a concentration of 25 mM in 10% 2-hydroxylpropyl-β-cyclodextrin (HPβCD, Sigma-Aldrich). For subconjunctival administration, R406 phenylsulfonate salt was administered at a concentration of 800–900 μM as a cosolvent solution in a formulation of 5% Cremaphor-eL, 0.5% ethanol, 0.2% Tween 80 and 94.3% PBS, filtered through a 0.22 μm filter prior to use (see Table S2). R406 phenylsulfonate salt was also administered subconjunctivally at a dose of 31.4 mM solution in DMSO. R406 free base was administered subconjunctivally at a concentration of 6.5 mM as a 25% castor oil (Sigma-Aldrich) emulsion. This emulsion was prepared by mixing castor oil: ethanol (1:1) solution of R406 (approx. 35 mM), in vacuo evaporation of the ethanol, and centrifugation to remove any excess R406, then emulsifying the R406 oil phase in an aqueous phase comprised of Cremaphor-eL, Tween 80 and PBS (final composition of the emulsion: 25% castor oil, 5% Cremaphor-eL, 0.2% Tween-80, 69.8% PBS) by probe sonication. For intravitreal injection, R788 solution was prepared by filtering a 0.12 mM (120 μM) solution of R788 in saline through a 0.22 μm filter. […] For topical delivery, 25–30 mM suspensions were prepared in 5% HPβCD. R406 or R788 concentration in all formulations was determined by UPLC prior to study (in cases where formulation was filtered before administration, concentration was determined post-filtering) Table I.
# For the systemic delivery study R788 was administered as a single bolus dose (25 mg/kg, 10 mL/kg volume) by oral gavage. For the subconjunctival administration study R788 or R406 (10 µL of formulation) was injected into the subconjunctival space of an anesthetized mouse using a Hamilton microliter syringe (Hamilton company, Reno NV). For the intravitreal administration study, R788 (5 μL of […] in saline) was administered to each eye via direct injection. To perform the intravitreal injection, mice were anesthetized, a small incision between the sclera and the cornea was created with a […] needle, and the R788 was injected into the vitreous using a Hamilton microliter syringe. For the topical administration study, R406 (2 μL of 25–30 mM suspension) was applied as a drop to the surface of each eye of an anesthetized mouse.
# At serial time points (0.5, 1, 2, 4, and 8 h post-injection, n = 3 for each time point), blood was collected by terminal cardiac puncture after isoflurane anesthesia. Whole-blood samples were centrifuged immediately at 10,000×g for 5 min at 4°C to separate plasma. Once the cardiac puncture and blood collection was completed, the animal was perfused with 10 mL of saline and euthanized by cervical dislocation. Eyes were removed, rinsed in PBS, gently patted dry, then rinsed and dried again. Eyes were dissected and vitreous was collected. Plasma and vitreous samples were put on dry ice immediately after collection and stored at −80°C until analysis. For quantitative analysis methods and assay validation methods and results, see Supplementary Information.
# Plasma and vitreous concentration time data were analyzed using non-compartmental analysis in WinNonlin 6.2 (Pharsight, Mountain View, CA), providing PK parameters including Cmax (maximum observed concentration), Tmax (time to reach maximum observed concentration), AUC (area under the concentration time curve) and MRT (mean residence time). AUC and AUMC (area under the concentration time first moment curve) values were estimated with the linear trapezoidal method, with parameters calculated using mean concentration values at each time point. […]
# [2] = tested on: RB355 cells; assay: EdU incorporation (DNA synthesis) in RB355 cells; assay type: cell-based; conditions: 5 μM R406, 0-72 h exposure
# Experimental: To determine if the lack of evidence of efficacy of subconjunctival R406 in a solution formulation was due to suboptimal ocular exposure, we performed a pharmacokinetic experiment. Briefly, 10 μl of R406 solution formulation was delivered to each eye of 15 mice and the plasma and vitreous were harvested at different time points (0.5, 1, 2, 4, and 8 h). The concentration of R406 was measured at each time point in each tissue and the concentration of drug was plotted as a function of time (Fig. 2). The 4 h and 8 h data are not shown, as the majority of R406 concentrations in these samples were BLOQ. […] Importantly, the maximal concentration achieved (0.05 μM) was well below the concentration required to kill the most sensitive retinoblastoma cell line (RB355 in culture, Fig. S3). RB355 cells in culture were treated with DMSO, 1, 2.5, or 5 μM of R406 for varied exposure durations (0, 6, 12, 24, 48 and 72 h). […] Incorporation of 5-ethynyl-2′-deoxyuridine (EdU) was used to detect DNA synthesis. […] Viability of RB355 cells in culture is reduced to 50% of the viability of DMSO treated cells when exposed to 2.5 μM R406 for an exposure duration between 24 and 48 h or 5 μM R406 for an exposure duration between 12 and 24 h.
# RB335 cells were seeded in 6-well dishes. […] Luminescence was read after 15 min on an Envision plate reader (Perkin Elmer). […]
# [3] = co-solvent solution 0.88 mM, 8.8 nmol per eye
Structure (SMILES),"Cmax ([1]; DMSO 31.4 mM, 314 nmol per eye)","Plasma AUClast ([1]; DMSO 31.4 mM, 314 nmol per eye)","Plasma Dose normalized AUC ([1]; DMSO 31.4 mM, 314 nmol per eye)","Plasma Tlast ([1]; DMSO 31.4 mM, 314 nmol per eye)","Plasma Tmax ([1]; DMSO 31.4 mM, 314 nmol per eye)","Cmax [1, 3]","Plasma AUClast [1, 3]","Plasma Dose normalized AUC [1, 3]","Plasma Tlast [1, 3]","Plasma Tmax [1, 3]",proportion of cells that incorporated EdU [2]
COc1cc(Nc2ncc(F)c(Nc3ccc4c(n3)NC(=O)C(C)(C)O4)n2)cc(OC)c1OC.O=S(=O)(O)c1ccccc1 [R406 phenylsulfonate salt],370 nM,0.298 µM·h,0.5 nM∙h/nmol,4 h,30 min,79 nM,0.0429 µM·h,2.4 nM∙h/nmol,1 h,30 min,
COc1cc(Nc2ncc(F)c(Nc3ccc4c(n3)NC(=O)C(C)(C)O4)n2)cc(OC)c1OC [R406],,,,,,,,,,,decreased with increasing exposure time
